From patent US12404332B2, “Methods for diagnosing and treating cancers” (Research Development Foundation, priority 2020, dated 2025)

Assays:
ID8agg and B16 cells = experiment: Chlorambucil in vitro cell growth, viability, apoptosis and calreticulin; assay type: cell-based, mouse
Experimental: FIGS. 34A-D: FIG. 34A, Cells cultured in vitro with chlorambucil at indicated concentrations and counts determined on Vi-Cell. p-value, unpaired t-test. VC, vehicle control. FIG. 34B, Annexin V-FITC/PI (AV/PI) dual staining assay. Upper left, necrotic cells). Lower left, live cells. Lower right, early apoptotic cells and upper right, late apoptotic cells. ID8agg (CAMB 5 μM) and B16 (CAMB 10 μM) cells were treated for 48 hours. FIG. 34C, CAMB-treated ID8agg and B16 cells stained with an isotype control or an anti-calreticulin (CRT) antibody followed by immunofluorescence cytometry. FIG. 34D, Tumor cells were treated with the indicated concentrations with CAMB 48 h. Cell viability was detected by CCK-8 assay and relative cell viability ratio were compared between WT cells and PD-L1KO or PD-Lllo cells at different concentration point.
Cell proliferation and viability assays: Cells (0.5-1×10^3) were plated in 96-well plastic culture plates in 100 μL medium and treated with CAMB. Cell viability was determined by a cell counting kit-8 (CCK-8) (Sigma). Absorbance was measured at 450 nm using a BioTek Synergy 2 Multi-Mode Plate Reader. Proliferation was assessed in triplicate in three separate experiments for in vitro all data shown.
(§1) Flow cytometry: Mice were sacrificed by cervical dislocation after induction of deep isoflurane anesthesia. ID8agg tumors were collected and cells were stained as described (Derup et al., 2020) using LSR II hardware and analyzed by FACS Diva (BD Bioscience) or Flow Jo software (Flow Jo, LLC). Anti-mouse (clone 10F.9G2) and human (clone 29E.2A3) PD-L1 [both PE/Cy7, Cat #124314 (mouse) 329718 (human)] were matched with isotype control. Apoptosis assessment used Annexin V and propidium iodide (Thermo Scientific) per manufacturer instruction.

B16 tumors = experiment: B16 tumor challenge in mice treated with chlorambucil; assay type: in vivo, mouse
Text: Mice and in vivo treatments: Wild-type (WT) C57BL/6 mice NSG were purchased from Jackson Labs (Bar Harbor, ME), bred in our animal facility and used at 7-20 weeks old. All mice were given ad libitum water and food and housed under specific pathogen-free conditions. Mice used here were matched for sex and age in each experiment. 1×10^5 control or PD-L1^KOB16 cells were given subcutaneously (SQ, both sexes). 4×10^6 control or PD-L1^lo ID8agg cells in log growth phase were given intraperitoneally (females only). B16 tumor growth was measured with Vernier calipers and volume was calculated as (length×width^2)/2. Intraperitoneal ID8agg tumor growth was determined by IVIS Lumina Imaging System (Perkin Elmer; Waltham, MA) 15 minutes after i.p. injection of 3 mg of PBS-dissolved d-luciferin K+ (Gold Biotechnology; St. Louis, MO) with 30 second exposures, medium binning, and F/stop=1. Identical regions of interest were drawn over each subject's abdomen and average radiance (photons/see/cm2/sr) was quantified with Living Image software version 4.2. Body weight was measured every week for PD-L1^lo ID8agg mice as a surrogate for tumor growth, and tumors were weighed at end-experiment in confirmation. Survival was determined as >1500 mm^3 for SQ tumors and distress or >20% mouse weight gain for PD-L1^lo ID8agg tumors. […]

ES2 cells = experiment: Tumor-initiating cell (TIC) flow cytometry, ES2 cells; assay type: cell-based, human
Experimental: FIGS. 40A-C: CAMB suppresses mTORC1 signals and reduces TIC numbers. FIG. 40A, Western blots for proteins in the mTORC1 pathway. Cells were treated with chlorambucil as indicated concentration for 48 hours. FIG. 40B, Western blot for LC3I/II to assess autophagy in cell lysates treated±chlorambucil at indicated concentrations. FIG. 40C, Percent of ALDH^hi TIC by flow cytometry of ES2 cells cultured±chlorambucil. Percent CD44^+CD24^+ ID8agg TIC and CD44^+CD133^+CD24^+ B16 TIC detected by flow cytometry.
as §1

O=C(O)CCCc1ccc(N(CCCl)CCCl)cc1 [chlorambucil]
cell growth in vitro (ID8agg and B16 cells): inhibited cell growth in vitro with little or no killing
cell surface calreticulin (ID8agg and B16 cells): significantly increased
immunogenic cell death (ICD) (ID8agg and B16 cells): induced ICD independent of tumor PD-L1 status
sensitivity of CTRL cells compared with PD-L1^lo or PD-L1^KO cells (ID8agg and B16 cells): more sensitive
apoptosis (ID8agg and B16 cells; ID8agg or B16 cells): did not induce apoptosis
treatment efficacy in PD-L1^KO B16 challenge (B16 tumors; WT mice): significantly reduced
treatment of tumors (B16 tumors; severely immunodeficient NSG mice, B16): effectively treated both
ALDH^hi TIC population (ES2 cells): significantly reduced
